For six compounds, IC50 and inhibition results are on record in publication PMC11557435, “Identification of novel SARS-CoV-2 3CLpro inhibitors by molecular docking, in vitro assays, molecular dynamics simulations and DFT analyses” (Frontiers in Pharmacology, 2024).

The assay concerns the target SARS-CoV-2 3CLpro (Severe acute respiratory syndrome coronavirus 2, UniProt P0DTD1). As to the kind of experiment: biochemical. The settings on record: for inhibition at 50 µM: single point, 50 μM compound.

`CC[C@H](C)N(Cc1cccc(OC)c1)C[C@@H](O)COc1ccc(OC)cc1` [Compound 1]: half-maximal inhibition (IC50) was put at 8.98 ± 0.57 µM and at 50 µM the inhibition was 85.4%.

`COc1ccc(NC(=O)c2ccccc2NC(=O)c2ccc([N+](=O)[O-])c(C)c2)cc1` [Compound 36]: the IC50 came out at 4.47 ± 0.39 µM and the inhibition at 50 µM turned out to be 81.9%.

For the compound `CCC(CC)C(=O)Nc1cccc(C(=O)Nc2ccccc2C(=O)Nc2ccc(OC)cc2)c1` [Compound 43], the IC50 is 6.99 ± 0.62 µM and the inhibition at 50 µM turned out to be 84.8%.

For `CC[C@H](C)[C@H](NC(=O)c1ccc2nc(-n3cccc3)sc2c1)C(=O)NCc1cccnc1` [Compound 5], the IC50 turned out to be 8.5 ± 0.26 µM and the inhibition at 50 µM was determined as 84%.

In turn, `COc1cc(-c2nc3cnccn3c2Nc2cccc(Cl)c2)ccc1O` [Compound 10] came in with a half-maximal inhibitory concentration (IC50) of 9.08 ± 0.56 µM and an inhibition at 50 µM of 78%.

`CCOc1ccc(NC(=O)C(CC(C)C)NC(=O)C2CCC(C)CC2)cc1` (stereo not drawn) [Compound 34]: half-maximal inhibition (IC50) required 6.12 ± 0.42 µM and the inhibition at 50 µM came out at 78.3%.

The term IC50 denotes the midpoint of a concentration-inhibition curve. A low value points to greater potency in that assay. What is called inhibition is the change of the read-out against control, counted positive when it falls. Lower therefore signals a weak effect.
